Measurements from ChEMBL document CHEMBL1140102, “Novel A-ring and B-ring modified combretastatin A-4 (CA-4) analogues endowed with interesting cytotoxic activity” (J Med Chem, 2008).

What was measured:
BMEC = assay: Cytotoxicity against BMEC by sulforhodamine B test; type: cell-based; conditions: Bos taurus
[1] = Displacement of [3H]colchicine from tubulin by scintillation proximity assay
NCI-H460 = assay: Cytotoxicity against human H460 cells by sulforhodamine B test; type: functional, cell-based
HT-29 [2] = assay: Cytotoxicity against human HT29 cells by sulforhodamine B test; type: functional, cell-based
HT-29 [3] = assay: Cell cycle arrest in human HT29 cells assessed as accumulation at G0/G1 phase at 0.5 uM after 24 hrs by flow cytometry assay; type: functional
HT-29 [4] = assay: Cell cycle arrest in human HT29 cells assessed as accumulation at G2/M phase at 0.5 uM after 24 hrs by flow cytometry assay; type: functional
HT-29 [5] = assay: Cell cycle arrest in human HT29 cells assessed as accumulation at S phase at 0.5 uM after 24 hrs by flow cytometry assay; type: functional

Row | SMILES | IC50 (BMEC) | IC50 [1] | IC50 (NCI-H460) | IC50 (HT-29 [2]) | Activity (HT-29 [3]) | Activity (HT-29 [4]) | Activity (HT-29 [5])
1 | COc1cc(/C=C\c2cc(O)c3ccsc3c2)cc(OC)c1 | 110 nM | 3800 nM |  |  |  |  | 
2 | COc1ccc(/C=C/c2cc(OC)c3ccoc3c2)cc1O | > 10000 nM | 6200 nM |  |  |  |  | 
3 | COc1cc(/C=C\c2cc(O)c3ccsc3c2)cc2c1OCO2 | 880 nM | 4900 nM |  |  |  |  | 
4 | COc1cc(/C=C\c2cc(O)c3ccoc3c2)cc(OC)c1 | 800 nM | 4000 nM |  |  |  |  | 
5 | COc1ccc(/C=C\c2cc(OC)c3ccsc3c2)cc1O | 17 nM | 20 nM | 13 nM | 260 nM |  |  | 
6 | COc1ccc(/C=C\c2cc(OC)c3occc3c2)cc1O | 35 nM | 50 nM | 12 nM | 590 nM |  |  | 
7 | COc1cc(/C=C\c2cc(O)c3ccsc3c2)cc2sccc12 | 250 nM |  | 312 nM |  |  |  | 
8 | COc1ccc(/C=C\c2cc(OC)c3ccsc3c2)cc1N.Cl | 20 nM | 6200 nM | 19 nM | 21 nM | 28% | 50% | 22%
9 | COc1ccc(/C=C\c2cc(OC)c3ccoc3c2)cc1O | 35 nM | 20 nM | 19 nM | 420 nM |  |  | 
10 | COc1ccc(/C=C\c2ccc3c(c2)C(C)(C)CCC3(C)C)cc1O | > 10000 nM |  |  |  |  |  | 
11 | COc1ccc(/C=C\c2cc(OC)c3ccsc3c2)cc1 | 123 nM |  | 110 nM |  |  |  | 
12 | COc1cc(/C=C\c2cc(O)c3ccoc3c2)cc2c1OCO2 | > 3000 nM | 7700 nM |  |  |  |  | 
13 | COc1cc2c(c(OC)c1OC)-c1ccc(OC)c(=O)cc1[C@@H](NC(C)=O)CC2 [COLCHICINE] |  | 1700 nM |  |  |  |  | 
14 | COc1ccc(/C=C\c2cc(OC)c(OC)c(OC)c2)cc1O [COMBRETASTATIN A4] | 3.7 nM | 100 nM | 1.2 nM | 118 nM |  |  | 
15 | COc1ccc(/C=C\c2cc(OC)c3c(c2)OCO3)cc1O [Combretastatin A-2] | 48 nM |  | 40 nM | > 1000 nM |  |  | 
